A word on the IC50: it is the concentration needed to halve the response being measured.

Where a name gives a salt, the structure may show the parent alone.

IC50 data for 17 compounds are collected here from patent US9968596B2 (Celgene Corporation, priority 2014, dated 2018).

In the experiment the test system is KG-1 cell line. The experiment is described as follows: Effect of test compounds on KG-1 cell proliferation (Cell Titer-Glo viability, 72 hours). The class given is cell-based. The following applies: Homo sapiens, read-out: FCA Prolif Cell TiterGlo KG-1 72 h (IC50). The method, then:
The anti-proliferative activity of the test compound was evaluated on KG-1 cell line (American Type Culture Collection [ATCC]: catalogue number ATCC® CCL-246™) at 72 hours post-treatment. The seeding density for KG-1 was optimized to ensure assay linearity in 384-well plates.
Increasing concentrations of the test compound (0.5 nM to 10 μM) were spotted in a 10-point serial dilution fashion (3-fold dilution) in duplicate via an acoustic dispenser (EDC ATS-100) into an empty 384-well plate. The dimethyl sulfoxide (DMSO) concentration was kept constant for a final assay concentration of 0.1% DMSO. Prior to testing, KG-1 cells were grown in RPMI-1640 (Roswell Park Memorial Institute—1640) medium with 10% FBS (fetal bovine serum: HyClone) and expanded in culture flasks to provide sufficient amounts of starting material. Cells were then diluted to 5000 cells per well, in a 50 μL volume and added directly to the compound-spotted 384-well plates. Cells were allowed to grow for 72 hours in 5% CO2 at 37° C. At the time when exposure of cells to compound began (t0), initial viable cell number was assessed via Cell Titer-Glo® Luminescent Cell Viability Assay at a 1 vol:2 vol ratio according to manufacturer's instructions (Promega Corporation, Madison, Wis.) by quantifying the level of luminescence generated by adenosine-5′-triphosphate (ATP) present in viable cells. After 72 hours, cell viability of t-treated cells was assessed via Cell Titer-Glo® and read for luminescence.
For orientation: In ATP-based viability assays light output follows the ATP content of the culture.
Regarding `O=C1CCC(N2Cc3cc(CNC(=O)C(F)(F)c4ccccc4Cl)ccc3C2=O)C(=O)N1` (centres unmarked) [Example 8], the IC50 fell in the range of 100 to 10000 nM. On to `O=C1CCC(N2Cc3cc(CNC(=O)C(F)(F)c4c(F)cccc4F)ccc3C2=O)C(=O)N1` (centres unmarked) [Example 14], for which the IC50 lay within 100 to 10000 nM. The figure for `Cn1nc(C(F)(F)C(=O)NCc2ccc3c(c2)CN(C2CCC(=O)NC2=O)C3=O)ccc1=O` (centres unmarked) [Example 107] is 100 to 10000 nM. Take `O=C1CCC(N2Cc3cc(CNC(=O)C(F)(F)c4ccc(F)cc4)ccc3C2=O)C(=O)N1` (centres unmarked) [Example 5]: the IC50 lay in the range of 10 to 50 nM. The value for `CN1CCN(c2cccc(C(F)(F)C(=O)NCc3ccc4c(c3)CN(C3CCC(=O)NC3=O)C4=O)c2)CC1` (centres unmarked) [Example 114, hydrochloride] was 100 to 10000 nM; that for `O=C1CCC(N2Cc3cc(CNC(=O)C(F)(F)c4ccc(C5CC5)cn4)ccc3C2=O)C(=O)N1` (centres unmarked) [Example 97] was 100 to 10000 nM. The value for `CC(C)Oc1ccc(C(F)(F)C(=O)NCc2ccc3c(c2)CN(C2CCC(=O)NC2=O)C3=O)cc1` (centres unmarked) [Example 22] was 10 to 50 nM; that for `COc1ccc(C(F)(F)C(=O)NCc2ccc3c(c2)CN(C2CCC(=O)NC2=O)C3=O)cc1` (centres unmarked) [Example 3] was 100 to 10000 nM.

As for `CC(C)(F)c1ccc(C(F)(F)C(=O)NCc2ccc3c(c2)CN(C2CCC(=O)NC2=O)C3=O)cc1` (centres unmarked) [Example 92], the 50% inhibitory concentration (IC50) fell in the range of 50 to 100 nM. Turning to `Nc1ncc(C(F)(F)C(=O)NCc2ccc3c(c2)CN(C2CCC(=O)NC2=O)C3=O)cn1` (centres unmarked) [Example 104], the IC50 lay within 100 to 10000 nM.

For the compound `Cc1ccccc1C(F)(F)C(=O)NCc1ccc2c(c1)CN(C1CCC(=O)NC1=O)C2=O` (centres unmarked) [Example 15, N-((2-(2,6-dioxopiperidin-3-yl)-1-oxoisoindolin-5-yl)methyl)-2,2-difluoro-2-(o-tolyl)acetamide], the IC50 fell in the range of 10 to 50 nM. As for `O=C1CCC(N2Cc3cc(CNC(=O)C(F)(F)C4(O)CCCC4)ccc3C2=O)C(=O)N1` (centres unmarked) [Example 66], the IC50 fell in the range of 100 to 10000 nM.

Turning to `CC(C)(C)c1ccc(C(F)(F)C(=O)NCc2ccc3c(c2)CN(C2CCC(=O)NC2=O)C3=O)nc1` (centres unmarked) [Example 96, hydrochloride], the IC50 lay in the range of 10 to 50 nM. With `O=C1CCC(N2Cc3cc(CNC(=O)C(F)(F)c4ccc(F)c(F)c4)ccc3C2=O)C(=O)N1` (centres unmarked) [Example 23], the IC50 lay within 100 to 10000 nM.

Take `O=C1CCC(N2Cc3cc(CNC(=O)C(F)(F)c4ccc(F)cc4OC(F)(F)F)ccc3C2=O)C(=O)N1` (centres unmarked) [Example 100]: the IC50 was in the range of 50 to 100 nM. As to `CS(=O)(=O)c1cccc(C(F)(F)C(=O)NCc2ccc3c(c2)CN(C2CCC(=O)NC2=O)C3=O)c1` (centres unmarked) [Example 103], the IC50 lay in the range of 100 to 10000 nM.

Regarding `O=C1CCC(N2Cc3cc(CNC(=O)C(F)(F)c4cccc(F)c4)ccc3C2=O)C(=O)N1` (centres unmarked) [Example 24], the IC50 lay within 100 to 10000 nM.
